Data as given in US4371537A, “Sulfur-substituted phenoxypyridines having antiviral activity” (The Dow Chemical Company, priority 1981, dated 1983).
In brackets after ≈: the same amount, converted by molar mass.

How the values were obtained:
[1] = system: 20 different rhinoviruses; test: Summary of WI-38 tissue culture testing against 20 rhinoviruses; type: cell-based; conditions: of 20 rhinoviruses
Experimental: The test compound was dissolved in an appropriate solvent (generally dimethyl sulfoxide) and incubated at 56° C. for at least 15 minutes and this solution was then used to prepare various test solutions having the desired concentration of test compound in preheated WI maintenance medium (49% Eagles, 49% medium 199, 2% fetal calf serum and antibiotics).
Triplicate cell culture tubes (WI-38 human embryonic lung cell culture tubes) were fed with 1 ml of medium containing the compound at specified concentrations and inoculated with 3-300 TCID50 (3-300 times the tissue culture infective dose 50, i.e., the dose required to infect 50% of the cell cultures tested). Simultaneous viral titrations were performed. The tissue cultures were supplemented with fresh medium when necessary (around 3-4 days) until viral titrations were completed.
The cell culture tubes were examined dialy for cytopathic effect. […] Comparisons were made at that time with the percentage of cell sheet destruction in tubes containing virus compound mixtures. Observed differences of 75% or more were graded "+", 74-50% as "±", and less than 50% as "-" inhibition.

rhinovirus type 2 (RV-2) = test: Tissue culture testing, rhinovirus type 2 in HeLa cells; type: cell-based; conditions: Enterovirus, 48 and 72 hours, NA = not active at the standard test conditions, read-out: RV-2: lowest concentration of the compound necessary to cause a 50 percent reduction in cytopathic effect
Experimental: (§1) Monolayered HeLa cells in 16 millimeter (mm) tissue culture dishes were treated with 1 ml of culture medium (Eagles medium supplemented with fetal calf serum) containing subject compound at an appropriate concentration or containing no compound at all. Culture media such as those described herein are more fully described in standard texts, as for example, Kuchler's Biochemical Methods in Cell Culture and Virology, Dowden, Hutchinson and Ross, Inc., Stroudsberg, PA (1977). Following treatment, cells were challenged with 0.05 ml of rhinovirus type 1A (RV-1A), rhinovirus type 2 (RV-2) or Coxsackie A21 virus (Cox A21) in culture medium. Some of the compounds were also tested against rhinovirus type 5 (RV-5), rhinovirus type 8 (RV-8) or rhinovirus type 64 (RV-64). Cell controls received no viruses.
(§2) ^2 Lowest concentration of the compound (μg/ml) necessary to cause

[2] = Cytotoxicity in tissue culture testing (HeLa monolayers); type: cell-based; conditions: human; HeLa cells; observed at 48 and 72 hours post-treatment; read-out: Cytotoxicity: concentration of the compound found to be toxic to the cell
Experimental: as §1
^1 Cytotoxicity figures represent the concentration of the compound, […]

[3] = system: rhinovirus type 64 (RV-64); test: Tissue culture testing, rhinovirus type 64 in HeLa cells; type: cell-based; conditions: Enterovirus, 48 and 72 hours, NA = not active at the standard test conditions, read-out: RV-64: lowest concentration of the compound necessary to cause a 50 percent reduction in cytopathic effect
Experimental: as §1, §2

[4] = system: rhinovirus type 1A (RV-1A); test: Tissue culture testing, rhinovirus type 1A in HeLa cells; type: cell-based; conditions: Enterovirus, 48 and 72 hours, NA = not active at the standard test conditions, read-out: RV-1A: lowest concentration of the compound necessary to cause a 50 percent reduction in cytopathic effect
Experimental: as §1, §2

Cox A21 = test: Single Oral Dose test in mice challenged IP with Cox A21; type: in vivo, Swiss male mice; conditions: >3.84 significant (95% confidence level)
Experimental: In addition, some of the compounds were tested in animals utilizing the following procedure, hereinafter referred to as the "Single Oral Dose" test. Swiss male mice, 8-12 grams in weight were challenged intraperitoneally (IP) with 0.2 ml of a normally lethal dose, i.e., a virus dose sufficient to cause […].80-100% mortality in infected animals within 10 days of challenge of Cox A21, in phosphate buffered saline containing 1% heat inactivated fetal calf serum. Three hours later mice were treated orally (P.O.) with 0.2 ml of compound suspended in 0.5% hydroxypropyl methylcellulose (Methocel) or with 0.2 ml of 0.5% Methocel containing no compound. […] Mice were observed daily for 7-10 days post-challenge and deaths recorded. A modified Mantel-Haenzel combined chi-square procedure was used to determine significant difference between virus control and treated groups. Chi-square values greater than 3.84 are considered significant (95% confidence level) in this test.

[5] = system: Coxsackie A21 virus (Cox A21); test: Tissue culture testing, Coxsackie A21 virus in HeLa cells; type: cell-based; conditions: 48 and 72 hours, NA = not active at the standard test conditions, read-out: Cox A21: lowest concentration of the compound necessary to cause a 50 percent reduction in cytopathic effect
Experimental: as §1, §2

Coxsackie A21 virus = test: Continuous Oral Feeding test in mice challenged IP with Coxsackie A21 virus; type: in vivo; conditions: po, 0.06 % in diet, 240 h
Experimental: Some of the compounds were also tested in animals utilizing the following procedure, hereainafter referred to as the "Continuous Oral Feeding" test. Coxsackie A21 virus grown on HeLa cells was administered at a concentration that produces 80 to 100% deaths in mice weighing 8 to 12 grams within 10 days, when the mice are injected (IP) with 0.2 ml of virus preparation. Mice were placed on diets containing test compound dispersed in plain commercially available rodent mash chow at a concentration of 0.06% (weight percent) on day 0. On day 1 the mice were challenged with the virus preparation, 0.2 ml/mouse, (IP). Deaths in both control and experimental groups were recorded for the 10 days and the results analyzed by a chi-square (.chi.^2) test. Chi-square values greater than 3.84 indicate the compound is active (95% confidence level).

[6] = 600 mg/kg P.O. 3 h after IP challenge

SMILES | number of test rhinoviruses against which the compound was graded "+" ([1]; 25 μg/ml) [test rhinoviruses] | number of test rhinoviruses against which the compound was graded "±" ([1]; 25 μg/ml) | number of test rhinoviruses against which the compound was graded "+" ([1]; 12.5 μg/ml) [test rhinoviruses] | number of test rhinoviruses against which the compound was graded "±" ([1]; 12.5 μg/ml) | EC50 (rhinovirus type 2 (RV-2)) [mg/L] | MCC [2] [µg/mL] | EC50 [3] [mg/L] | EC50 [4] [mg/L] | Single Oral Dose X^2 (chi-square, deaths vs virus control) (Cox A21; [6]) | EC50 [5] [mg/L] | Continuous Oral Feeding X^2 (chi-square, deaths vs control) (Coxsackie A21 virus) | Single Oral Dose X^2 (chi-square, deaths vs virus control) (Cox A21; 400 mg/kg P.O. 3 h after IP challenge)
CCS(=O)(=O)c1ccc(Oc2ccc(Cl)c(Cl)c2)nc1 [2-(3,4-dichlorophenoxy)-5-(ethylsulfonyl)pyridine] | 14 | 3 | – | – | – | – | – | – | – | – | – | –
CS(=O)(=O)c1ccc(Oc2ccc(Cl)c(Cl)c2)nc1 [2-(3,4-dichlorophenoxy)-5-(methylsulfonyl)pyridine] | 14 | 2 | – | – | – | – | – | – | – | – | – | –
CCS(=O)(=O)c1ccc(Oc2ccc(Cl)cc2)nc1 [2-(4-chlorophenoxy)-5-(ethylsulfonyl)pyridine] | – | – | 13 | 4 | – | – | – | – | – | – | – | –
CS(=O)(=O)c1ccc(Oc2ccc(Cl)cc2)nc1 [2-(4-chlorophenoxy)-5-(methylsulfonyl)pyridine] | – | – | 13 | 3 | – | – | – | – | – | – | – | –
CS(=O)(=O)c1ccc(Oc2ccc(C(=O)c3ccccc3)cc2)nc1 [(4-((5-(methylsulfonyl)-2-pyridinyl)oxy)phenyl)phenylmethanone] | 13 | 3 | – | – | – | – | – | – | – | – | – | –
CS(=O)(=O)c1ccc(Oc2ccc(SC(F)(F)F)cc2)nc1 [Example 27, 5-(methylsulfonyl)-2-(4-((trifluoromethyl)thio)phenoxy)pyridine] | – | – | – | – | < 6.25 | ≥ 100 | < 6.25 | 12.5 (≈ 35.8 µM) | 39.700 | < 6.25 | 29.753 | –
CS(=O)(=O)c1ccc(Oc2cccc(Br)c2)nc1 [Example 35, 2-(3-bromophenoxy)-5-(methylsulfonyl)pyridine] | – | – | – | – | 12.5 (≈ 38.1 µM) | > 100 | 6.25 (≈ 19 µM) | < 6.25 | 1.604 | 50 (≈ 152 µM) | 0.197 | –
CS(=O)(=O)c1ccc(Oc2cccc(C#N)c2)nc1 [Example 36, 3-((5-(methylsulfonyl)-2-pyridinyl)oxy)benzonitrile] | – | – | – | – | 50 (≈ 182 µM) | > 100 | 50 (≈ 182 µM) | 12.5 (≈ 45.6 µM) | 2.20 | 50 (≈ 182 µM) | 3.447 | –
C[S+]([O-])c1ccc(Oc2ccc(Cl)c(Cl)c2)nc1 (centres unmarked) [Example 39, 2-(3,4-dichlorophenoxy)-5-(methylsulfinyl)pyridine] | – | – | – | – | 1.25 (≈ 4.14 µM) | 25 | 1.25 (≈ 4.14 µM) | 0.625 (≈ 2.07 µM) | – | 25 (≈ 82.7 µM) | – | –
CCSc1ccc(Oc2ccc(Cl)c(Cl)c2)nc1 [Example 45, 2-(3,4-dichlorophenoxy)-5-(ethylthio)pyridine] | – | – | – | – | 2.5 (≈ 8.33 µM) | 12.5 | 5 (≈ 16.7 µM) | 2.5 (≈ 8.33 µM) | – | 3.12 (≈ 10.4 µM) | – | –
CC[S+]([O-])c1ccc(Oc2ccc(Cl)c(Cl)c2)nc1 (centres unmarked) [Example 46, 2-(3,4-dichlorophenoxy)-5-(ethylsulfinyl)pyridine] | – | – | – | – | < 3.12 | 12.5 | 5 (≈ 15.8 µM) | < 3.12 | – | 12.5 (≈ 39.5 µM) | – | –
CC(C)S(=O)(=O)c1ccc(Oc2ccc(Cl)c(Cl)c2)nc1 [Example 49, 2-(3,4-dichlorophenoxy)-5-((1-methylethyl)sulfonyl)pyridine] | – | – | – | – | 0.625 (≈ 1.81 µM) | 12.5 | 0.625 (≈ 1.81 µM) | < 0.312 | – | 0.625 (≈ 1.81 µM) | 3.851 | 0.004
CC(C)S(=O)(=O)c1ccc(Oc2ccc(Br)cc2)nc1 [Example 50, 2-(4-bromophenoxy)-5-((1-methylethyl)sulfonyl)pyridine] | – | – | – | – | 1.25 (≈ 3.51 µM) | 12.5 | 2.5 (≈ 7.02 µM) | 1.25 (≈ 3.51 µM) | 10.040 | 1.25 (≈ 3.51 µM) | 1.243 | –
CCCCCCS(=O)(=O)c1ccc(Oc2ccc(C(=O)c3ccccc3)cc2)nc1 [Example 55, (4-((5-(n-hexylsulfonyl)-2-pyridinyl)oxy)phenyl)phenylmethanone] | – | – | – | – | 12.5 (≈ 29.5 µM) | 12.5 | – | 3.12 (≈ 7.38 µM) | 0.190 | 3.12 (≈ 7.38 µM) | – | –
O=S(=O)(c1ccccc1)c1ccc(Oc2ccc(Cl)c(Cl)c2)nc1 [Example 60, 2-(3,4-dichlorophenoxy)-5-(phenylsulfonyl)pyridine] | – | – | – | – | 10 (≈ 26.3 µM) | ≥ 100 | – | 5 (≈ 13.1 µM) | 0.839 | 10 (≈ 26.3 µM) | 0.970 | –
O=S(=O)(c1ccccc1)c1ccc(Oc2ccc(Br)cc2)nc1 [Example 61, 2-(4-bromophenoxy)-5-(phenylsulfonyl)pyridine] | – | – | – | – | 10 (≈ 25.6 µM) | 20 | – | 10 (≈ 25.6 µM) | 4.401 | 5 (≈ 12.8 µM) | 3.328 | –
O=S(=O)(Cc1ccccc1)c1ccc(Oc2ccc(Cl)c(Cl)c2)nc1 [Example 63, 2-(3,4-dichlorophenoxy)-5-((phenylmethyl)sulfonyl)pyridine] | – | – | – | – | 10 (≈ 25.4 µM) | 25 | – | 5 (≈ 12.7 µM) | 0.733 | 10 (≈ 25.4 µM) | 4.106 | –
O=S(=O)(Cc1ccccc1)c1ccc(Oc2ccc(Br)cc2)nc1 [Example 64, 2-(4-bromophenoxy)-5-((phenylmethyl)sulfonyl)pyridine] | – | – | – | – | 50 (≈ 124 µM) | ≥ 100 | – | – | 0.483 | – | 2.985 | –
CS(=O)(=O)c1cccc(Oc2ccc(C(=O)c3ccccc3)cc2)n1 [Example 68] | – | – | – | – | 6.25 (≈ 17.7 µM) | 12.5 | – | 6.25 (≈ 17.7 µM) | 0.362 | 6.25 (≈ 17.7 µM) | 0.680 | –
CS(=O)(=O)c1cccc(Oc2ccc(Cc3ccccc3)cc2)n1 [Example 69, 2-(methylsulfonyl)-6-(4-(phenylmethyl)phenoxy)pyridine] | – | – | – | – | 2.5 (≈ 7.37 µM) | 5 | – | 0.625 (≈ 1.84 µM) | 3.510 | – | 0.776 | –
